{"source": "patent US20260048021A1", "about": "“NEUTRAL LIPID AND LIPID NANOPARTICLE” (National University Corporation Hokkaido University, priority 2022, published 2026)", "key": {"[1]": {"system": "factor VII (F7)", "settings": "mouse liver; cited from earlier work"}, "[2]": {"experiment": "Evaluation of lipid polymorphism by 31P NMR spectroscopy", "assay_type": "physicochemical", "settings": "DOPC/lipid=50/50 (mol %), hydrated with PBS(−), 25° C.", "method": "The spectrum of a lipid membrane by ^31P NMR spectroscopy differs depending on the phase. Therefore, analysis of a lipid membrane composed of DOPC and a lipid under evaluation was performed by ^31P NMR spectroscopy, the polymorphism of the phase state of the lipid membrane was evaluated from the obtained spectrum, and the ability of the lipid under evaluation to destroy the DOPC membrane was evaluated.\nSpecifically, DOPC and a lipid under evaluation (DOPE or TOT-10) were mixed at a molar ratio of 1:1 (16 μmol of total lipid) and were dissolved in 300 μL of chloroform, and then the solvent was removed by a distillation apparatus (rotovap) to form a lipid membrane. The resulting lipid membrane was hydrated with 500 μL of PBS(−) at 60° C. to obtain a sample for measurement.\nNext, the sample was transferred to an NMR tube, and a proton-decoupled ^31P NMR spectrum was obtained using an ECA500 apparatus manufactured by JEOL Ltd. Acquisition parameters included a […], a spectral width of 280 kHz (for ECX 400P) with 32,768 data points, and an interpulse delay time of 1 second. The temperature was controlled at 25° C. Prior to Fourier transform, exponential multiplication corresponding to a line broadening of 50 Hz was applied to the free induction decay. Chemical shifts were referenced to 85% phosphoric acid (H3PO4) as an external standard. […]"}}, "data": [{"compound": "CCCCC/C=C\\C/C=C\\CCCCCCCCC(CCCCCCCC/C=C\\C/C=C\\CCCCC)OC(=O)CCCN(C)C", "note": "[DLin-MC3-DMA]", "values": [{"measurement": "ED50 in factor VII (F7) knockdown", "setting": "[1]", "value": 0.005, "unit": "mg siRNA/kg"}]}, {"compound": "CCCCCCCC/C=C\\CCCCCCCC(=O)OC[C@H](COP(=O)(O)OCCN)OC(=O)CCCCCCC/C=C\\CCCCCCCC", "note": "[DOPE, 1,2-dioleoyl-sn-glycero-3-phosphoethanolamine]", "values": [{"measurement": "phase of lipid membrane seen in 31P NMR spectrum", "setting": "[2]", "value": "a peak derived from the lamellar phase was observed"}]}, {"compound": "CCCCCCCC/C=C\\CCCCCCCC(=O)OCC(COC(=O)CCCCCCC/C=C\\CCCCCCCC)(COC(=O)CCCCCCC/C=C\\CCCCCCCC)NC(=O)CCC[N+](C)(C)CC(=O)[O-]", "note": "[TOT-10, 2-((4-((1,3-bis(oleoyloxy)-2-((oleoyloxy)methyl)propan-2-yl)amino)-4-oxobutyl)dimethylammonio)acetate]", "values": [{"measurement": "phase of lipid membrane seen in 31P NMR spectrum", "setting": "[2]", "value": "a peak derived from the hexagonal phase or isotropic phase was observed instead of a peak derived from the lamellar phase"}]}, {"compound": "CCCCC/C=C\\C/C=C\\CCCCCCCCOC1(OCCCCCCCC/C=C\\C/C=C\\CCCCC)CCN(C)CC1", "note": "[YSK05]", "values": [{"measurement": "ED50 in factor VII (F7) knockdown", "setting": "[1]", "value": 0.06, "unit": "mg siRNA/kg"}]}]}
